The Ki is a measure of affinity in units of concentration, obtained from inhibition or displacement. A high value points to a looser hold on the target.

Here are results for 21 compounds from patent US20160326142A1, “PYRAZOLE CARBOXAMIDE COMPOUNDS, COMPOSITIONS AND METHODS OF USE” (Genentech, Inc., priority 2012, published 2016).

The structures appear in SMILES notation.

This assay deals with T1, ITK (Homo sapiens, UniProt Q08881).
T1 construct: purchased Invitrogen PV3875
T1 sequence (Q08881 1-620): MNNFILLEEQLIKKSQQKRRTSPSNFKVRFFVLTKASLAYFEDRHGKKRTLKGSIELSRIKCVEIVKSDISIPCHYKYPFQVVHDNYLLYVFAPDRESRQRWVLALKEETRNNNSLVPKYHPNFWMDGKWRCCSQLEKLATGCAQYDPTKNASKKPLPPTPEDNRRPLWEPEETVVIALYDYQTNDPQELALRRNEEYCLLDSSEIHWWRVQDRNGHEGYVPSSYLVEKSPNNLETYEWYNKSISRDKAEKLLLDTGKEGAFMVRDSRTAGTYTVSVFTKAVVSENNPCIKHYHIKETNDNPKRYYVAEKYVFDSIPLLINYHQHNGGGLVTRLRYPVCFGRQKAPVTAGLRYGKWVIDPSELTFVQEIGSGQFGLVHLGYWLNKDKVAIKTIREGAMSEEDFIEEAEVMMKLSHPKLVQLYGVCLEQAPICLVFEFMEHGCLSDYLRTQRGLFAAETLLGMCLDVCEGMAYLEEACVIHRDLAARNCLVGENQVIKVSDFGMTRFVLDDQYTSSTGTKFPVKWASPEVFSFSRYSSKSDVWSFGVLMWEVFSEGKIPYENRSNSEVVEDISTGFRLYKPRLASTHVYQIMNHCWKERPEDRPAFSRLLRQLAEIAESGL
The assay is described as follows: ITK enzyme assay (Caliper or LCMS peptide phosphorylation). The assay is classed as biochemical. The conditions noted are these: purified ITK (Invitrogen PV3875), 20 μM ATP, Ki by Morrison's quadratic equation. In a few lines: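 Purified human ITK peptide phosphorylation, quenched with EDTA (50 mM final) for Caliper LabChip separation or TCA (5% v/v final) for UPLC-MS/MS MRM quantification. Ki derived via Morrison tight-binding equation, corrected for competitive inhibition using ATP concentration relative to Km,app.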
The compound `CC1(C)Cc2c(C(=O)Nc3cnn(Cc4ccccc4)c3)n[nH]c2CCO1` [Example 71b, N-(1-benzyl-1H-pyrazol-4-yl)-5,5-dimethyl-4,5,7,8-tetrahydro-1H-oxepino[4,5-c]pyrazole-3-carboxamide] came in with a Ki of 790 nM.
`CC12Cc3[nH]nc(C(=O)Nc4cnn(C(c5ccccc5)C5CCCCS5(=O)=O)c4)c3CC1C2` (single isomer, unassigned) [Example 143c, N-(1-((1,1-dioxidotetrahydro-2H-thiopyran-2-yl)(phenyl)methyl)-1H-pyrazol-4-yl)-5a-methyl-1,4,4a,5,5a,6-hexahydrocyclopropa[f]indazole-3-carboxamide] came in with a Ki of 2 nM.
`CC1(C)CCc2c(C(=O)Nc3cnn(C(CCN4CC(F)(F)C4)c4ccccc4)c3)n[nH]c2C1` (single isomer, unassigned) [Example 121a, N-(1-(3-(3,3-difluoroazetidin-1-yl)-1-phenylpropyl)-1H-pyrazol-4-yl)-6,6-dimethyl-4,5,6,7-tetrahydro-1H-indazole-3-carboxamide] displayed a Ki of 6 nM.
Compound `CC1CCc2[nH]nc(C(=O)Nc3cnn(Cc4ccccc4)c3)c2C1` (single isomer, unassigned) [Example 8b, N-(1-benzyl-1H-pyrazol-4-yl)-5-methyl-4,5,6,7-tetrahydro-1H-indazole-3-carboxamide] yielded a Ki of 77 nM.
The compound `N#Cc1cccc(Cn2cc(NC(=O)c3n[nH]c4c3CCCC4)cn2)c1` [Example 3, N-(1-(3-cyanobenzyl)-1H-pyrazol-4-yl)-4,5,6,7-tetrahydro-1H-indazole-3-carboxamide] yielded an inhibition constant Ki of 31 nM.
Regarding `CC1(C)Cc2[nH]nc(C(=O)Nc3cnn(Cc4ccccc4)c3)c2CC1O` (single isomer, unassigned) [Example 70b, N-(1-benzyl-1H-pyrazol-4-yl)-5-hydroxy-6,6-dimethyl-4,5,6,7-tetrahydro-1H-indazole-3-carboxamide], affinity was put at a Ki of 7 nM.
The same measure for `Cn1cc(C(c2ccccc2)n2cc(NC(=O)c3n[nH]c4c3CC3CC3C4)cn2)cn1` (single isomer, unassigned) [Example 27d, N-(1-((1-methyl-1H-pyrazol-4-yl)(phenyl)methyl)-1H-pyrazol-4-yl)-1,4,4a,5,5a,6-hexahydro cyclopropa[f]indazole-3-carboxamide]: 96 nM; for `CN(C)CCC(c1ccccc1)n1cc(NC(=O)c2n[nH]c3c2C2CC2CC3)cn1` (single isomer, unassigned) [Example 26c, N-(1-(3-(dimethylamino)-1-phenylpropyl)-1H-pyrazol-4-yl)-3,4,5,5a,6,6a-hexahydrocyclopropa[e]indazole-1-carboxamide]: 22 nM; for `CC1(C)CCc2c(C(=O)Nc3cnn(C(c4ccccc4)C4CNCCS4(=O)=O)c3)n[nH]c2C1` (single isomer, unassigned) [Example 127a]: 0.2 nM.
The value for `CC12Cc3[nH]nc(C(=O)Nc4cnn(C(c5ccccc5)C5CC[S+]([O-])CC5)c4)c3CC1C2` (single isomer, unassigned) [Example 120a, 5a-methyl-N-(1-((1-oxidotetrahydro-2H-thiopyran-4-yl)(phenyl)methyl)-1H-pyrazol-4-yl)-1,4,4a,5,5a,6-hexahydrocyclopropa[f]indazole-3-carboxamide] was 0.1 nM; that for `CC(c1cscn1)n1cc(NC(=O)c2n[nH]c3c2CCC(C)(C)C3)cn1` (single isomer, unassigned) [Example 84b, 6,6-dimethyl-N-(1-(1-(thiazol-4-yl)ethyl)-1H-pyrazol-4-yl)-4,5,6,7-tetrahydro-1H-indazole-3-carboxamide] was 13 nM; that for `CC1(C)CCc2c(C(=O)Nc3cnn(C(c4ccccc4)C4CNC4)c3)n[nH]c2C1` (single isomer, unassigned) [Example 34a, N-(1-(azetidin-3-yl(phenyl)methyl)-1H-pyrazol-4-yl)-6,6-dimethyl-4,5,6,7-tetrahydro-1H-indazole-3-carboxamide] was 3 nM.
`CN(C)CCC(c1ccccc1)n1cc(NC(=O)c2n[nH]c3c2CC2CC2C3)cn1` (single isomer, unassigned) [Example 28c, N-(1-(3-(dimethylamino)-1-phenylpropyl)-1H-pyrazol-4-yl)-1,4,4a,5,5a,6-hexahydrocyclopropa[f]indazole-3-carboxamide] had a Ki of 155 nM.
The value for `CC12Cc3c(C(=O)Nc4cnn(C(c5ccccc5)C5CCS(=O)(=O)CC5)c4)n[nH]c3C1C2` (single isomer, unassigned) [Example 152d, N-(1-((1,1-dioxidotetrahydro-2H-thiopyran-4-yl)(phenyl)methyl)-1H-pyrazol-4-yl)-4a-methyl-4,4a,5,5a-tetrahydro-1H-cyclopropa[4,5]cyclopenta[1,2-c]pyrazole-3-carboxamide] was 15 nM; that for `CC12Cc3[nH]nc(C(=O)Nc4cnn(C(c5cccnc5)C5CS(=O)(=O)C5)c4)c3CC1C2` (single isomer, unassigned) [Example 116a, N-(1-((1,1-dioxidothietan-3-yl)(pyridin-3-yl)methyl)-1H-pyrazol-4-yl)-5a-methyl-1,4,4a,5,5a,6-hexahydrocyclopropa[f]indazole-3-carboxamide] was under 0.1 nM.
The compound `CC1(O)CCc2c(C(=O)Nc3cnn(Cc4ccccc4)c3)n[nH]c2C1` (single isomer, unassigned) [Example 51a, N-(1-benzyl-1H-pyrazol-4-yl)-6-hydroxy-6-methyl-4,5,6,7-tetrahydro-1H-indazole-3-carboxamide] yielded a Ki of 160 nM.
With `O=C(Nc1cnn(Cc2ccccc2)c1)c1n[nH]c2c1CCC1(CCCO1)C2` (single isomer, unassigned) [Example 50a, N-(1-benzyl-1H-pyrazol-4-yl)-1′,4,4′,5,5′,7′-hexahydro-3H-spiro[furan-2,6′-indazole]-3′-carboxamide], the Ki turned out to be 260 nM.
Compound `CC1(C)CCc2c(C(=O)Nc3cnn(C(CN4CCOCC4=O)c4ccccc4)c3)n[nH]c2C1` (single isomer, unassigned) [Example 77a, 6,6-dimethyl-N-(1-(2-(3-oxomorpholino)-1-phenylethyl)-1H-pyrazol-4-yl)-4,5,6,7-tetrahydro-1H-indazole-3-carboxamide] yielded an inhibition constant Ki of 20 nM.
The value for `CC1(C)CCc2c(C(=O)Nc3cnn(C(c4ccccc4)C(C)(C)O)c3)n[nH]c2C1` (single isomer, unassigned) [Example 55b, N-(1-(2-hydroxy-2-methyl-1-phenylpropyl)-1H-pyrazol-4-yl)-6,6-dimethyl-4,5,6,7-tetrahydro-1H-indazole-3-carboxamide] was 18 nM.
The same measure for `CC1(C)CCc2c(C(=O)Nc3cnn(C(c4cccnc4)C4CCS(=O)(=O)CC4)c3)n[nH]c2C1` (single isomer, unassigned) [Example 74a, N-(1-((1,1-dioxidotetrahydro-2H-thiopyran-4-yl)(pyridin-3-yl)methyl)-1H-pyrazol-4-yl)-6,6-dimethyl-4,5,6,7-tetrahydro-1H-indazole-3-carboxamide]: 0.2 nM.
The same measure for `CC1(C)CCc2c(C(=O)Nc3cnn(C(c4ccccc4)[C@@H]4CNCCO4)c3)n[nH]c2C1` (single isomer, unassigned) [Example 66a]: 0.3 nM.
